Biological target: CFTR (Homo sapiens, UniProt P13569, G551D)
Assay: Ussing chamber short-circuit current, FRT cells
Assay type: cell-based

CFTR, sequence (P13569 whole entry G551D): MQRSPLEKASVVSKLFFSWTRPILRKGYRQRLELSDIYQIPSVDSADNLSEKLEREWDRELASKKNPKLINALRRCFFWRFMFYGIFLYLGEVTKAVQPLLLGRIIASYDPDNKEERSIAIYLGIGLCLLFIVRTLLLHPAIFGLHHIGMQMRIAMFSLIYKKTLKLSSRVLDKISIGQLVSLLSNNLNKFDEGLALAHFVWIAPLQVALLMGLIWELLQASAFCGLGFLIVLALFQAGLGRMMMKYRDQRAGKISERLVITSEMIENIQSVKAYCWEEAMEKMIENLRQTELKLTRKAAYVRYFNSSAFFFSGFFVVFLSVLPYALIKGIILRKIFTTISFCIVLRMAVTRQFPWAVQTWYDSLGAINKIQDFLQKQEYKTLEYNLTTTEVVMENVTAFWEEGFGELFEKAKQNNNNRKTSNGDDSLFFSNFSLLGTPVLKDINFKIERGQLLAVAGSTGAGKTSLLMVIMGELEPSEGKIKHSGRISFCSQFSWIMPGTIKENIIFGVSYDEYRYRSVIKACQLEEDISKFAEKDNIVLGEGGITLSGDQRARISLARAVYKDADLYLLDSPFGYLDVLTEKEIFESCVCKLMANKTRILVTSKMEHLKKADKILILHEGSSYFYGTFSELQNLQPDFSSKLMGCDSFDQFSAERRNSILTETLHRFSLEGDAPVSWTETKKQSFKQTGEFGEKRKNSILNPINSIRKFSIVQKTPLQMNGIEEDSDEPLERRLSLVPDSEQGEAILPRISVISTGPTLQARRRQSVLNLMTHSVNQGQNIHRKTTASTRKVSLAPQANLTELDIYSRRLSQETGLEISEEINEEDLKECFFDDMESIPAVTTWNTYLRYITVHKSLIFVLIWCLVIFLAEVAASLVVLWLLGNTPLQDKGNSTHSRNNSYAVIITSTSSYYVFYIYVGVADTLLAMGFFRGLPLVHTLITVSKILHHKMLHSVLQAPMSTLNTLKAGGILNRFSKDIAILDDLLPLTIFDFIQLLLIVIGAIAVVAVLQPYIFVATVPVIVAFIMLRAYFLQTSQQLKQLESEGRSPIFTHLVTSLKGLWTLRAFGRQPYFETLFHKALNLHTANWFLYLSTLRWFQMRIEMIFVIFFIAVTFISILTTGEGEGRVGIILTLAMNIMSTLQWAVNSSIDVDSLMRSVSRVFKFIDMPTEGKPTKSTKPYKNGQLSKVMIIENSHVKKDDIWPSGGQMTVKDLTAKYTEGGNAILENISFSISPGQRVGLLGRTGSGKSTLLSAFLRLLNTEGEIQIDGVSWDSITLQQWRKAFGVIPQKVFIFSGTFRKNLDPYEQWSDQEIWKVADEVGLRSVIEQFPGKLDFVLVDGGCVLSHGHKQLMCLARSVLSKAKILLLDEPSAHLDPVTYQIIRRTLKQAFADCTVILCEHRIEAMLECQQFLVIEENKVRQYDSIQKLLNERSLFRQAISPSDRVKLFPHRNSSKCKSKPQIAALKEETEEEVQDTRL

With CC(C)(C)c1cc(C(C)(C)C)c(NC(=O)c2c[nH]c3ccccc3c2=O)cc1O [VX-770] the “Ussing chamber short-circuit current, FRT cells” value was “In terms of efficacy as a single agent, uHTS159 is roughly equivalent to VX-770”.

Reference: paper PMC13267069 (npj Drug Discovery, 2025)
